Assay results taken from article PMC7188855, “Nucleic acid recognition and antiviral activity of 1,4-substituted terphenyl compounds mimicking all faces of the HIV-1 Rev protein positively-charged α-helix” (Scientific Reports, 2020).
pEC50, pKd: −log10 of the molar value. Like-named read-outs stand apart in the source and are kept apart here.

Assays:
[1] = target: RRE subdomain IIB RNA hairpin IIBh; test: Fluorescence intensity binding to fluorescein-labelled IIBh hairpin; set-up: species or system HIV-1; settings: for IIB-DNA spec., Kd(IIBh)/Kd(IIBh+LTRd) / IIB-tRNA spec., Kd(IIBh)/Kd(IIBh+tRNA): low ionic strength, 10 mM sodium phosphate pH 6.6, uses Kd1
Text: We next determined whether the terphenyl molecules blocked the interaction between Rev34–50 and subdomain IIB by binding to the RNA and, if so, whether they recognized subdomain IIB in a manner similar to the Rev34–50 α-helix. We first evaluated subdomain IIB association by measuring changes in the fluorescence intensity of a IIBh RNA hairpin construct containing a fluorescein probe attached to unpaired loop IIB residue U23 (Fig. 1D)[21],[22]. […] However, there were significant differences among the compounds.
(§1) These experiments measured association to IIBh-23fl or TARh-8fl RNA molecules labelled with fluorescein at extrahelical loop nucleotides U23 and U8, respectively (Fig. 1D), and were carried out under two different ionic conditions in a Victor X5 plate reader, using excitation and emission wavelengths of 485 and 520 nm, respectively. We also attempted to measure association to an alternative IIBh hairpin containing 2-aminopurine instead of adenine at unpaired loop IIB residue A19[21], but all terphenyls fluoresced at the excitation wavelength of this fluorophore. IIBh-23fl or TARh-8fl (at 100 nM concentration) was equilibrated for 5 minutes after each ligand addition in a buffer containing either 10 mM sodium phosphate pH 6.6 and 0.1 mM EDTA or 10 mM HEPES pH 7.5, 200 mM KCl and 2 mM MgCl2. In addition to the TARh specificity control, the RNA and DNA specificity of the IIBh interactions was assessed by duplicating the experiments in the presence of a 10-fold molar excess (1 μM) of either tRNA^Lys or DNA duplex LTRd. The equilibrium dissociation constants Kd were determined by fitting the fluorescence intensity curves with DYNAFIT[40]. We used one-site, two independent-sites and two interacting-sites binding models for all curves, and the best model was automatically selected by model discrimination analysis, except where indicated. The final graphs were plotted with Prism. All fluorescence intensity experiments were performed at least two times for each compound and condition.

HIV-1 LTR promoter = test: Transfection of pLTR-luc in MT-2 cells; settings: Human immunodeficiency virus 1, MT2, 48 h, read-out: EC50 transfection HIV-1 LTR
Experimental: (§3) To further assess the mechanism of antiviral action of the compounds, we checked whether they also interfered with the regulatory sequences of HTLV-1, a closely related retrovirus.
(§4) MT-2 cells were transfected with plasmids containing a luciferase reporter gene whose expression was under the control of the full length proviral HIV-1 (NL4.3-luc), the HIV-1 LTR promoter (pLTR-luc), or the HTLV-1 LTR promoter (pLTR(HTLV)-luc). After transfection, cells were treated with different compound concentrations, and activity quantification was performed 48 h later by determining luciferase activity in cell lysates as described[7],[21],[22].

HTLV-1 LTR promoter = test: Transfection of pLTR(HTLV)-luc in MT-2 cells; settings: Primate T-lymphotropic virus 1, MT2, 48 h, read-out: EC50 transfection HTLV LTR
Experimental: as §3, §4

[2] = target: TARh hairpin containing the HIV-1 Tat-binding UCU bulge; test: Fluorescence intensity binding to control TARh hairpin; settings: for Kd(TARh)/Kd(IIBh): low ionic strength, 10 mM sodium phosphate pH 6.6, uses Kd1
Text: To evaluate the specificity of subdomain IIB recognition, we measured binding to a control TARh hairpin containing the HIV-1 Tat-binding UCU bulge[23] (Fig. 1D). […] We further assessed specificity by duplicating the IIBh-23fl association experiments in the presence of a 10-fold molar excess of tRNA^Lys or a 26-base pair LTRd DNA duplex. The binding curves of the compounds were affected by the presence of competitive tRNA^Lys and to a lesser extent by LTRd (Figs. 4A, S4 and S5 and Tables 2 and S2).
as §1

HIV-1 = test: Cellular HIV-1 infection assay (NL4.3-Ren, MT-2 cells); format: cell-based; settings: Human immunodeficiency virus 1, MT2, 48 h post-infection
Experimental: (§2) The methodology used to perform and analyse these experiments has been reported elsewhere[7],[21],[22]. Briefly, infectious supernatants were obtained from transfection of plasmid pNL4.3-Ren on 293 T cells, MT-2 cells were infected with these supernatants in the presence of the compounds, and anti-HIV activity quantification was performed 48 h post-infection by determining luciferase activity in cell lysates compared to a non-treated control (100%). Cellular viability was evaluated in mock infected cells similarly treated with the same concentrations of compounds using the CellTiterGlo (Promega) assay.

[3] = tested on: LTRc, core region of the HIV-1 LTR promoter; test: EMSA of association to LTRc DNA; format: binding; settings: 20 nM LTRc duplex; 10 mM HEPES pH 7.5, 300 mM KCl, 1 mM MgCl2, 0.5 mM EDTA
Experimental: The experiments monitoring RRE-Rev inhibition utilized 78 nM full-length RRE and 1.32 μM full-length Rev dissolved in 10 mM HEPES pH 7.5, 300 mM KCl, 1 mM MgCl2 and 0.5 mM EDTA binding buffer, and increasing concentrations of each compound up to 50 μM[21],[39]. The reactions were incubated at room temperature for 20 minutes and loaded onto 8% polyacrylamide gels with TB running buffer. Gels were run at 4 °C for 1–4 hours at 150 V, and the bands were stained with SYBR gold and quantified with Quantity One 4.1 analysis software. Experiments monitoring binding to the 58-base pair HIV-1 LTRc core segment utilized 20 nM LTRc duplex dissolved in the same binding buffer, and increasing concentrations of each compound. The reactions were similarly incubated and loaded onto 20% polyacrylamide gels with TB running buffer. The gels were run at 4 °C for 3.5 hours at 150 V, and the bands were stained and quantified as described above. The specificity of LTRc association was evaluated by duplicating the experiments in the presence of a 100-fold molar excess of DNAd duplex (28-fold base-pair molar excess). In all cases, we monitored the disappearance of the band corresponding to high-order RRE-Rev complexes or free LTRc, and 50% response RC50 values were determined with Prism by fitting the data to a sigmoidal inhibitory model: I−Imin=ImaxC/1+C/RC50 where I is the intensity of the band corresponding to LTRc or high-order RRE-Rev species at compound concentration C, Imax the best-fit value for maximum intensity, and Imin the minimum intensity obtained at the highest concentration of inhibitor. All EMSA experiments were repeated three times for each compound.

[4] = Cellular viability (CellTiterGlo) in mock infected cells; format: cell-based; settings: human, mock infected MT-2 cells
Experimental: as §2

[5] = 10 mM sodium phosphate pH 6.6, 0.1 mM EDTA, two-site model, read-out: Kd (IIBh), first-site Kd1
[6] = 10 mM sodium phosphate pH 6.6, 0.1 mM EDTA, two-site model, read-out: Kd (IIBh), second-site Kd2 (in brackets)
[7] = 10-fold molar excess DNA duplex LTRd, 10 mM sodium phosphate pH 6.6, 0.1 mM EDTA, one-site fit, approximate, read-out: Kd (IIBh+LTRd)
[8] = 10-fold molar excess LTRd, 10 mM HEPES pH 7.5, 200 mM KCl, 2 mM MgCl2, read-out: Kd (IIBh+LTRd), one-site or first-site Kd1, Table S2
[9] = 10-fold molar excess tRNALys, 10 mM HEPES pH 7.5, 200 mM KCl, 2 mM MgCl2, one-site fit, approximate, read-out: Kd (IIBh+tRNA), Table S2
[10] = 10-fold molar excess tRNALys, 10 mM sodium phosphate pH 6.6, 0.1 mM EDTA, one-site fit, approximate, read-out: Kd (IIBh+tRNA)
[11] = higher ionic strength, 10 mM HEPES pH 7.5, 200 mM KCl, 2 mM MgCl2, read-out: Kd (IIBh), first-site Kd1, Table S2
[12] = 10 mM sodium phosphate pH 6.6, 0.1 mM EDTA, read-out: Kd (TARh), one-site or first-site Kd1
[13] = higher ionic strength, 10 mM HEPES pH 7.5, 200 mM KCl, 2 mM MgCl2, read-out: Kd (TARh), Table S2
[14] = higher ionic strength, 10 mM HEPES pH 7.5, 200 mM KCl, 2 mM MgCl2
[15] = higher ionic strength, 10 mM HEPES pH 7.5, 200 mM KCl, 2 mM MgCl2, read-out: Kd (IIBh), second-site Kd2 (in brackets), Table S2

SMILES | pKd [1, 5] | pKd [1, 6] | pKd [1, 7] | pKd [1, 8] | pKd [1, 9] | pKd [1, 10] | pKd [1, 11] | IIB-DNA spec., Kd(IIBh)/Kd(IIBh+LTRd) [1] | IIB-tRNA spec., Kd(IIBh)/Kd(IIBh+tRNA) [1] | pEC50 (HIV-1 LTR promoter) | pEC50 (HTLV-1 LTR promoter) | pKd [2, 12] | pKd [2, 13] | Kd(TARh)/Kd(IIBh) [2] | pEC50 (HIV-1) | association to LTRc (EMSA) [3] | CC50 at 48 h [4] | IIB-DNA spec., Kd(IIBh)/Kd(IIBh+LTRd), Table S2 [1, 14] | pKd [1, 15] | Kd(TARh)/Kd(IIBh), Table S2 [2, 14] | other results
Cc1cc(-c2cc(CCN)ccc2CCN)c(C)cc1-c1cccc(CCN)c1 [Compound 3c] | 5.19 | 4.59 | 5.09 | < 4.30 | < 4.30 | 5.28 | < 4.30 | 0.80 | 1.3 | 5.48 | 4.79 | 4.11 | < 4.30 | 12 | 4.85 | associated only very weakly | > 100 µM | – | – | – | –
COc1cc(CCN)c(-c2cc(C)c(-c3cc(CCN)c(OC)cc3CCN)cc2C)cc1CCN [Compound 1a] | 6.01 | 5.23 | 5.62 | 4.82 | – | 4.55 | 5.36 | 0.41 | 0.035 | 5.14 | 4.78 | 4.92 | 4.89 | 12 | 4.97 | associated to LTRc at low μM concentrations | > 100 µM | 0.29 | 4.74 | 3.0 | –
Cc1cc(-c2cc(CCN)ccc2CCN)c(C)cc1-c1cc(CCN)ccc1CCN [Compound 1d] | 6.06 | 5.46 | 5.66 | 5.43 | 4.38 | 5.11 | 5.12 | 0.40 | 0.11 | 5.49 | 4.60 | 4.66 | 4.49 | 25 | 4.24 | associated to LTRc at low μM concentrations | > 100 µM | 2.1 | 4.52 | 4.3 | pKd ([1]; 10-fold molar excess LTRd, 10 mM HEPES pH 7.5, 200 mM KCl, 2 mM MgCl2, read-out: Kd (IIBh+LTRd), second-site Kd2 (in brackets), Table S2): 4.27; IIB-tRNA spec., Kd(IIBh)/Kd(IIBh+tRNA), Table S2 [1, 14]: 0.18; pKd ([2]; 10 mM sodium phosphate pH 6.6, 0.1 mM EDTA, two-site model, read-out: Kd (TARh), second-site Kd2 (in brackets)): 4.66
